The subject of test [1] is peripheral circulation disorder model induced by lactic acid. As to conditions: animal model of peripheral arterial obstruction; as described in WO01/060819; cited from earlier work.
Test [2] deals with EDG2 (Homo sapiens, UniProt Q92633). The following applies: as described in WO01/060819; cited from earlier work.
A short description of test [3]: Inhibition of LPA-induced intracellular Ca2+ concentration increase (FLIPR). The class given is cell-based. As to conditions: LPA final concentration 5 μM; rat hepatic stellate cell derived myofibroblast like clone; Fluo-3, FLIPR. The source says:
(1) Establishment of Myofibroblast Like Cell Strain Derived from Rat Hepatic Stellate Cell Fraction A stellate cell fraction was obtained from the liver of male Wistar rat according to a conventional method (European J. Biochem., 1993, vol. 213, p. 815). After subculture for several generations, the cell was cloned by limiting dilution. Well grown 24 clones that formed colonies were isolated. These clones were stained with αSMA antibody and confirmed to be all positive and to have Myofibroblast like properties. […] (2) Measurement of Cell Activation (Intracellular Ca^2+ Concentration Increasing Action)-Inhibitory Activity The above-mentioned cells were cultured overnight in a 384 well plate at 24,000 cells/well and the medium was removed. An assay buffer (0.1% BSA, 20 mM HEPES, 1×HBSS, 2.5 mM Probenecid) containing 4 μM of Fluo-3, AM (Biotium) was added, and the cells were stained at 37° C. for 1 hour. Following the buffer containing the dye reagent was removed, and an assay buffer was added, intracellular Ca^2+ concentration was measured with FLIPR (Molecular Devices). Adding a test substance and LPA at the final concentration of 5 μM, the inhibitory action of the test substance on the increase in the intracellular Ca^2+ concentration by LPA was examined. The increase in the intracellular Ca^2+ concentration by LPA addition without test substance was taken as 100%, that without the addition of LPA was taken as 0%, and the substrate's concentration (IC50) at inhibiting increase in the intracellular Ca^2+ concentration by 50% was determined.

Sequence of EDG2 (Q92633 whole entry): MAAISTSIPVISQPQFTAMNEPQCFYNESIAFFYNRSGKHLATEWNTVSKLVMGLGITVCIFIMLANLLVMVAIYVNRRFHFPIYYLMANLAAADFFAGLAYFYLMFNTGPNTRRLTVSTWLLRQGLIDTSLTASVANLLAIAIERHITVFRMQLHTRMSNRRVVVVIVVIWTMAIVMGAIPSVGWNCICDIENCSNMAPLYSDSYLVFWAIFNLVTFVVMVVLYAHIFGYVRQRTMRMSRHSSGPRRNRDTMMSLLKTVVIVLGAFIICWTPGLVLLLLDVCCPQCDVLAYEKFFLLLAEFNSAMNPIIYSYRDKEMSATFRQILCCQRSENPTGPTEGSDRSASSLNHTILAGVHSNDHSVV

In general, IC50 refers to the midpoint of a concentration-inhibition curve. A lower IC50 goes with inhibition by little substance. Turning to `COC(=O)CCSCc1ccc(-c2onc(C)c2NC(=O)OC(C)c2ccccc2Cl)cc1` (stereo not shown) [Example 115, methyl 3-([4-[4-([[1-(2-chlorophenyl)ethoxy]carbonyl]amino)-3-methyl-5-isoxazolyl]benzyl]-sulfanyl)propanoate], in test [1], the “action in peripheral circulation disorder model induced by lactic acid” value is given as “improving action”. The EDG2 antagonistic action entry in test [2] is given as “strong EDG2 antagonistic action”. Further, the half-maximal inhibitory concentration (IC50) in test [3] was determined as 836 nM.

Consider `C[C@@H](OC(=O)Nc1conc1-c1ccc(CSCCC(=O)O)cc1)C1=C(Cl)CCC1` [Compound 9, 3-(4-{4-[(1R)-1-(2-chloro-1-cyclopentenyl)ethoxycarbonyl-amino]-3-isoxazolyl}benzylsulfanyl)propionic acid], for which 26 nM corresponded to half-maximal inhibition in test [3] (IC50).
